Usually t½ stands for the time needed for the level to fall by half in the phase considered.

Data set [1] can be described thus: Non-GLP 7-day repeat dose studies in beagle dogs, pharmacokinetics incl. iv group (SRI No. B677-13, M835-11). Type of data set: in vivo. From the text:
These two pilot studies included an iv administration group so that oral bioavailability could be calculated. The oral bioavailability was low at <3% and essentially the same in both studies regardless of whether the dogs received formulated capsules or 3,4,3-L1(1,2-HOPO) dissolved in PBS without sodium oleate. […] Volume of distribution was 0.3 L/kg, consistent with drug that is distributed primarily to the extracellular space.

A further data set concerns the target CYP2D6 (Homo sapiens, UniProt P10635). In words: CYP inhibition. Type of data set: in vitro ADME.
Data set [2] in a line: 28-day oral gavage study in Sprague Dawley rats (SRI No. M512-07). Format: in vivo.

The structures appear in SMILES notation.

Chain of CYP2D6 (P10635 whole entry): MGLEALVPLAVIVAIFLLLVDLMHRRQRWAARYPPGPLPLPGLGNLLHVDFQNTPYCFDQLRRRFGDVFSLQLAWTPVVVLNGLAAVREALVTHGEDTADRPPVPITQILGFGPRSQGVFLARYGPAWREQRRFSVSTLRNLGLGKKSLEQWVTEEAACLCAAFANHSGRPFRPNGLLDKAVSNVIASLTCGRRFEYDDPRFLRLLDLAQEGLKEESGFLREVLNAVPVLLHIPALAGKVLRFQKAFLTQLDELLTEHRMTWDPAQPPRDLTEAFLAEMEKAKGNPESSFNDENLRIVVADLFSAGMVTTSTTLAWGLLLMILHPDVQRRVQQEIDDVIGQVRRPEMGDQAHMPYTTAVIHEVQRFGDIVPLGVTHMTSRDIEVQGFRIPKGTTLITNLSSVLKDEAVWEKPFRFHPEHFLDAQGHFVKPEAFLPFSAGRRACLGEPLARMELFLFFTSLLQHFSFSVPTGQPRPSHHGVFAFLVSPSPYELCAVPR

On to `O=C(NCCCN(CCCCN(CCCNC(=O)c1cccc(=O)n1O)C(=O)c1cccc(=O)n1O)C(=O)c1cccc(=O)n1O)c1cccc(=O)n1O` [3,4,3-L1(1,2-HOPO)], for which, in data set [1] (after 7 days of dosing), the “accumulation in the plasma” value was “did not accumulate in the plasma”. Also, the oral bioavailability in data set [1] (formulated capsules or API in PBS without sodium oleate) was under 3%. Further, in data set [1] (iv 37.6 mg/kg (50 μmol/kg)), the Volume of distribution is reported as 0.3 L/kg, the “clearance (Cl)” value is 9.9 mL/min/kg, the “mean AUCinf” value was 64000 ng·h/mL and the “observed peak plasma level” value came out at 115 ± 11 µg/mL. The compound further had a t½ in data set [1] (iv 37.6 mg/kg (50 μmol/kg)) of 24 min. In addition, the “inhibition of CYP2D6 activity” value at CYP2D6 is “did not inhibit”. Moreover, the renal findings entry in data set [2] (28 days of oral gavage) is “no renal findings”. The “soft stools or diarrhea” value in data set [2] (oral gavage 7.7-76.9 mg/kg (10-102 μmol/kg) for 28 days) is “not observed”.

The values above are taken from patent US11684614B2, “Formulations of hydroxypyridonate actinide/lanthanide decorporation agents” (priority 2017, dated 2023).
